Experimental data published in ChEMBL document CHEMBL1201862, “PubChem BioAssay data set” (2004).
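Assay format: 96-well plates, 48-hour exposure. At the GI50, growth is halved.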 Calls of active or inactive are those of the source. No stated cut-off is given here; in the data, active = GI50 up to about 1.1 µM and inactive = higher.

How the values were obtained:
Assay in all cases: inhibition of tumour cell growth, NCI panel, 48 h
SR = tested on: SR
A498 = tested on: A498
NCI-H460 = tested on: NCI-H460
KM12 = tested on: KM12
HL-60 = tested on: HL-60
ACHN = tested on: ACHN
Malme-3M = tested on: Malme-3M
COLO 205 = tested on: COLO 205
OVCAR-4 = tested on: OVCAR-4
HT-29 = tested on: HT-29
A549 = tested on: A549
LOX IMVI = tested on: LOX IMVI
U-251 = tested on: U-251
SK-MEL-5 = tested on: SK-MEL-5
M14 = tested on: M14
SF-539 = tested on: SF-539

Measured: GI50

CC1(C)C(=O)CCC(=O)C(C)(C)C2=CC=C(O2)C(C)(C)C(=O)CCC(=O)C(C)(C)C2=CC=C1O2
inactive: SR > 100 µM | A498 > 100 µM | NCI-H460 > 100 µM | KM12 > 100 µM | HL-60 > 100 µM | ACHN > 100 µM | Malme-3M > 100 µM | COLO 205 > 100 µM | OVCAR-4 > 100 µM | HT-29 > 100 µM | A549 > 100 µM | LOX IMVI > 100 µM | U-251 > 100 µM

COC(=O)c1cccc2c3ccccc3c3ccccc3c12
inactive: SR 36.8 µM | A498 20.2 µM | SK-MEL-5 30.1 µM | KM12 39.5 µM | HL-60 23.3 µM | ACHN 79.3 µM | Malme-3M 73.5 µM | COLO 205 16.6 µM | OVCAR-4 64.3 µM | HT-29 29.5 µM | M14 28.5 µM | A549 44.5 µM | LOX IMVI 29.4 µM | U-251 26.1 µM

Cc1cc(Br)cc(C)c1NC(=O)C(=O)CC(=O)c1sc(-n2nc(-c3ccccc3)cc2-c2ccccc2)nc1C
inactive: SR > 100 µM | A498 > 100 µM | NCI-H460 > 100 µM | KM12 > 100 µM | HL-60 > 100 µM | ACHN > 100 µM | Malme-3M > 100 µM | COLO 205 > 100 µM | OVCAR-4 > 100 µM | HT-29 > 100 µM | M14 > 100 µM | A549 > 100 µM | LOX IMVI > 100 µM | U-251 > 100 µM

COC1CCC2C(=O)CCCC2O1 (configuration not stated)
inactive: SR > 100 µM | A498 > 100 µM | NCI-H460 > 100 µM | SK-MEL-5 > 100 µM | KM12 > 100 µM | HL-60 > 100 µM | ACHN > 100 µM | Malme-3M > 100 µM | COLO 205 > 100 µM | OVCAR-4 > 100 µM | HT-29 > 100 µM | M14 > 100 µM | A549 > 100 µM | SF-539 > 100 µM | U-251 > 100 µM

O=C1OC(Cl)C(N=P(c2ccccc2)(c2ccccc2)c2ccccc2)=C1Cl (configuration not stated)
inactive: SR > 100 µM | A498 > 100 µM | SK-MEL-5 > 100 µM | KM12 > 100 µM | HL-60 > 100 µM | Malme-3M > 100 µM | COLO 205 > 100 µM | OVCAR-4 > 100 µM | HT-29 > 100 µM | M14 > 100 µM | A549 > 100 µM | LOX IMVI > 100 µM | SF-539 93.3 µM

CC(C)c1cccc(C(C)C)c1NC(=O)C(=O)C(C(=O)c1ccc2ccccc2c1)C1OC(=O)c2ccccc21 (configuration not stated)
inactive: SR > 100 µM | A498 34 µM | NCI-H460 > 100 µM | SK-MEL-5 > 100 µM | KM12 > 100 µM | ACHN > 100 µM | Malme-3M > 100 µM | COLO 205 > 100 µM | OVCAR-4 > 100 µM | HT-29 > 100 µM | M14 > 100 µM | A549 > 100 µM | LOX IMVI > 100 µM | SF-539 > 100 µM | U-251 > 100 µM

CCc1cccc(C)c1NC(=O)C(=O)CC(=O)c1ccc(Cl)s1
inactive: SR > 100 µM | A498 > 100 µM | NCI-H460 > 100 µM | KM12 > 100 µM | HL-60 > 100 µM | ACHN > 100 µM | Malme-3M > 100 µM | OVCAR-4 > 100 µM | HT-29 > 100 µM | M14 > 100 µM | A549 > 100 µM | LOX IMVI > 100 µM | SF-539 > 100 µM | U-251 > 100 µM

C=C1CC[C@@H]2C(C)(C)C(O)CCC2(C)C1COc1ccc2ccc(=O)oc2c1 (some centres not stated)
inactive: SR 23.6 µM | A498 19.9 µM | NCI-H460 10.5 µM | KM12 15.6 µM | HL-60 15.1 µM | ACHN 16.8 µM | Malme-3M 18.1 µM | COLO 205 14.9 µM | OVCAR-4 13.5 µM | HT-29 18.9 µM | M14 18.6 µM | A549 17.2 µM | LOX IMVI 16.8 µM | SF-539 16.8 µM | U-251 17.7 µM

CN(C)CCNc1nc(-c2cccs2)cc(-c2cccs2)n1
inactive: SR 2.84 µM | A498 11.9 µM | NCI-H460 3.85 µM | SK-MEL-5 15.3 µM | KM12 12.1 µM | Malme-3M 15.5 µM | COLO 205 12.1 µM | OVCAR-4 > 10 µM | HT-29 7.5 µM | M14 12.4 µM | A549 15.6 µM | LOX IMVI 10.5 µM | SF-539 15.1 µM | U-251 10.7 µM

C#CCN(N=O)C(=O)NCCCCC(NC(C)=O)C(=O)NCc1ccccc1 (configuration not stated)
inactive: SR 53 µM | A498 > 100 µM | NCI-H460 > 100 µM | SK-MEL-5 > 100 µM | KM12 > 100 µM | ACHN > 100 µM | Malme-3M > 100 µM | COLO 205 > 100 µM | OVCAR-4 > 100 µM | HT-29 > 100 µM | M14 > 100 µM | A549 > 100 µM | LOX IMVI > 100 µM | SF-539 > 100 µM | U-251 > 100 µM
